Measurements reported in paper PMC9468336, “The choanoflagellate pore-forming lectin SaroL-1 punches holes in cancer cells by targeting the tumor-related glycosphingolipid Gb3” (Communications Biology, 2022).
Read-outs that look alike come from different tables or passages of the source.

How the values were obtained:
SaroL-1 = molecular target: T1, SaroL-1 (Salpingoeca rosetta, UniProt F2UID9); assay: Inhibition of SaroL-1 (217 nM) induced hemolysis of rabbit erythrocytes after 1 h pre-incubation of lectin with sugar at RT, then 1-2 h at 37 °C, absorbance of supernatant at 540 nm.; type: cell-based; details: n = 2
T1 construct: gene PTSG_08235; monomeric in solution
Method: Hemolytic assay (HA) and inhibition of hemolytic activity (IHA)
(§1) Both HA and IHA assays were performed in U-shaped 96-well microtiter plates. In both cases, a control negative experiment was performed with Buffer A added to erythrocyte solution (2% final concentration), and the resulting value was subtracted from all data.
(§2) IHA was performed in U-shaped 96-well microtiter plates. […] 4% rabbit erythrocytes were added to the mixture in a 1:1 ratio and incubated for 1–2 h at 37 °C. The samples were centrifuged, 2600 × g for 15 min at RT, and the absorbance of the supernatant was measured at 540 nm by a Tecan reader.

[1] = molecular target: T2, hemolytic activity of SaroL-1 on rabbit erythrocytes (Salpingoeca rosetta, UniProt F2UID9); assay: Inhibition of hemolytic activity (IHA) of SaroL-1 by carbohydrates; type: cell-based; details: for inhibition: SaroL-1 217 nM, read-out: Mean % inhibition of hemolysis
T2 sequence (F2UID9 1-329): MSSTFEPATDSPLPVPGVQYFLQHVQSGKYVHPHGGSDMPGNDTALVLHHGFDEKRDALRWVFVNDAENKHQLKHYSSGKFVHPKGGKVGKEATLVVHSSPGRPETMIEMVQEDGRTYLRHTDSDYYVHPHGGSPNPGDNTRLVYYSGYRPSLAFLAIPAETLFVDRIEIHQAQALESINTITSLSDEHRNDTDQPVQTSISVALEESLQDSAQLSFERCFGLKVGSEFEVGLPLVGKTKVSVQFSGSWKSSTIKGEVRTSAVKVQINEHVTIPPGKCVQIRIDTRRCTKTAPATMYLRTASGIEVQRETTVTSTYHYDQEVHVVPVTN
Method: as §1, §2

[2] = Confocal imaging of SaroL-1 binding to FSL-B GUVs; details: 200 nM SaroL-1, FSL-B GUVs
Text: (§3) GUVs were composed of 1,2-dioleoyl-sn-glycero-3-phosphocholine (DOPC), cholesterol (both AvantiPolar Lipids, United States), Atto 647 N 1,2-dioleoyl-sn-glycero-3-phosphoethanolamine (DOPE; Sigma-Aldrich), and one of the following glycolipids at a molar ratio of 64.7:30:0.3:5. The glycolipids are globotriaosylceramide (Gb3, Matreya), FSL-Gb3 (Function-Spacer-Lipid with globotriaosyl saccharide), and corresponding FSL-isoGb3 (Function-Spacer-Lipid with iso-globotriaosyl saccharide) synthetized as previously described[84],[85], FSL-A(tri) (Function-Spacer-Lipid with blood group A trisaccharide; Sigma-Aldrich), FSL-B(tri) (Function-Spacer-Lipid with blood group B trisaccharide; Sigma-Aldrich) or lactosylceramide (LC, Sigma-Aldrich).
(§4) GUVs were prepared by the electroformation method as earlier described. Briefly, lipids dissolved in chloroform of a total concentration of 0.5 mg/mL were spread on indium tin oxid-covered (ITO) glass slides and dried in a vacuum for at least 1 h or overnight. […]
(§5) Samples of GUVs and SaroL-1 were imaged using a confocal fluorescence microscope (Nikon Eclipse Ti-E inverted microscope equipped with Nikon A1R confocal laser scanning system, 60x oil immersion objective, NA = 1.49 and four laser lines: 405 nm, 488 nm, 561 nm, and 640 nm). […]

[3] = Confocal imaging of SaroL-1 binding to lactosylceramide GUVs; details: 200 nM labelled SaroL-1, Lac-cer GUVs
Text: as §3, §4, §5

[4] = Confocal imaging of SaroL-1 binding to Gb3 wt GUVs; set-up: species or system porcine; details: 200 nM fluorescent SaroL-1, Gb3 wt GUVs, compared with FSL-Gb3 GUVs
Text: as §3, §4, §5

H1299 cells = assay: Lactate dehydrogenase (LDH) assay; type: cell-based, human; details: 271 nM and 1.36 µM SaroL-1, 2 and 4 h
Method: The human lung epithelial cell line H1299 (American Type Culture Collection, CRL-5803) was cultured in a complete medium, consisting of Roswell Park Memorial Institute (RPMI) medium supplemented with 10% fetal calf serum (FCS) and 2 mM L-glutamine at 37 °C and 5% CO2. Cells were stimulated with different concentrations of SaroL-1 in a complete medium for indicated time points.
This assay was used to monitor rapid changes in cell viability following the formation of pores induced by SaroL-1. Prior to running the assay, kit components were assembled according to CyQuant^TM LDH Cytotoxicity assay kit (Invitrogen—Thermo Fisher Scientific) manufacturer´s instructions. 1 × 10^4 cells per well were plated in 100 µL in triplicates in a 96-well plate with a flat bottom and allowed to adhere overnight. […] After 30 min\ of incubation at room temperature and in absence of light, 50 µL of Stop solution were added to each well and the absorbance of samples was recorded at 490 nm and 680 nm using a BioTek microplate reader. To determine LDH activity, the reference absorbance at […] (background) was subtracted from the 490 nm absorbance values before calculation of % cytotoxicity. % cytotoxicity was calculated according to the following formula = [SaroL-1-treated LDH activity − spontaneous LDH activity]/[maximum LDH activity − spontaneous LDH activity] × 100.

[5] = Confocal imaging of SaroL-1 binding to FSL-Gb3 GUVs; details: 200 nM fluorescent-labelled SaroL-1, FSL-Gb3 GUVs
Text: as §3, §4, §5

O=[N+]([O-])c1ccc(O[C@H]2O[C@H](CO)[C@H](O)[C@H](O)[C@H]2O)cc1 [PNPG, p-nitrophenyl-α-D-galactopyranoside]
IC50 (SaroL-1): 2900 µM
inhibition of hemolysis (in words) ([1]; 10 mM carbohydrate): complete inhibition
inhibition ([1]; sugar 0.003 mM): 8.15%
inhibition ([1]; sugar 0.006 mM): 10.7%
inhibition ([1]; sugar 0.0125 mM): 12.1%
inhibition ([1]; sugar 0.025 mM): 9.06%
inhibition ([1]; sugar 0.05 mM): 3.85%
inhibition ([1]; sugar 0.1 mM): 3.39%
inhibition ([1]; sugar 0.2 mM): 1.44%
inhibition ([1]; sugar 0.4 mM): 2.69%
inhibition ([1]; sugar 0.8 mM): 8.59%
inhibition ([1]; sugar 1.6 mM): 24.5%
inhibition ([1]; sugar 3.125 mM): 55.9%
inhibition ([1]; sugar 6.25 mM): 90.5%
inhibition ([1]; sugar 12.5 mM): 100%
inhibition ([1]; sugar 25 mM): 100%
inhibition ([1]; sugar 50 mM): 100%

B1: SaroL-1: Recombinant pore-forming lectin of Salpingoeca rosetta (UniProt F2UID9, 329 amino acids) with β-trefoil and aerolysin-like domains (protein)
chain: MSSTFEPATDSPLPVPGVQYFLQHVQSGKYVHPHGGSDMPGNDTALVLHHGFDEKRDALRWVFVNDAENKHQLKHYSSGKFVHPKGGKVGKEATLVVHSSPGRPETMIEMVQEDGRTYLRHTDSDYYVHPHGGSPNPGDNTRLVYYSGYRPSLAFLAIPAETLFVDRIEIHQAQALESINTITSLSDEHRNDTDQPVQTSISVALEESLQDSAQLSFERCFGLKVGSEFEVGLPLVGKTKVSVQFSGSWKSSTIKGEVRTSAVKVQINEHVTIPPGKCVQIRIDTRRCTKTAPATMYLRTASGIEVQRETTVTSTYHYDQEVHVVPVTN
modifications: left off: His6, N-terminal, state not stated
notes: Recombinant pore-forming lectin of Salpingoeca rosetta (UniProt F2UID9, 329 amino acids) with β-trefoil and aerolysin-like domains
binding to GUVs [2]: No binding
binding to GUVs [3]: very weak binding
binding to GUVs [4]: of the same order
LDH release / membrane damage (in words) (H1299 cells): induced acute cytotoxicity
binding to GUVs [5]: Strong binding
